pIC50: −log10 of the molar value.
Experiments:
Assay in all cases: AMPD Enzymatic Activity Assay
Details in all cases: pH 7.4
[1] = target: T1, AMP deaminase 1 (Mus musculus, UniProt Q3V1D3)
T1 sequence (Q3V1D3 whole entry): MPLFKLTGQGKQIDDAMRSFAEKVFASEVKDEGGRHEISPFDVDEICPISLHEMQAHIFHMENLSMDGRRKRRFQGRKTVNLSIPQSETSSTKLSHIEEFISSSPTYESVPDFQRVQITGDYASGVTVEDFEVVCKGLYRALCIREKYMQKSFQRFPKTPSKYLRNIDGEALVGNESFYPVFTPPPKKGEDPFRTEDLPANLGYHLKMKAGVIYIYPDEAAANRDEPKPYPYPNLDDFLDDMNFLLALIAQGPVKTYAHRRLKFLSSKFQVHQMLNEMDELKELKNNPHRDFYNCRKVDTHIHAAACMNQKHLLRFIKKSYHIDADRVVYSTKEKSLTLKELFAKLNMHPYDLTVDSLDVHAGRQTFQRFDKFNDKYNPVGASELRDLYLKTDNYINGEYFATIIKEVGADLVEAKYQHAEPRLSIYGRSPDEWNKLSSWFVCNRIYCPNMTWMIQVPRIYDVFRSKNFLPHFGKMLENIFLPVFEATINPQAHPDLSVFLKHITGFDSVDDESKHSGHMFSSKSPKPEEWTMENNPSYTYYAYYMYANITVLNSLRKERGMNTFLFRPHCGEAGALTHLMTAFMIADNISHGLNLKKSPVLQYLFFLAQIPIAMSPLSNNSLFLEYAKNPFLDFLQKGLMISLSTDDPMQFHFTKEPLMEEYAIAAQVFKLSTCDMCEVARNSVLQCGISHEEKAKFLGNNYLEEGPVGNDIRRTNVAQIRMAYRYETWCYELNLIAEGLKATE
Method: (§1) AMPD1 was added to buffer A (50 mM HEPES, 150 mM KCl, 5 mM MgCl2, and 0.5 mMglutathione [pH 7.4]) to a concentration of 10 nM. A substrate mix consistingof 2mMNADPH, 6mMa-ketoglutarate, 8mMAMP, and 15 U GDH was prepared in buffer A. Substrate mix ([…]) was added to the plate, followed by centrifugation and incubation for 1 hr. Detection was by absorbance at 340 nm following the conversion of NADPH to NADP+. Recombinant AMPD enzyme activity assays were performed in a 384-well format using the same conditions as described above, except the assay volume was […] and the AMP concentration for the AMPD2 assay was 8 mM. Different AMPD enzyme concentrations were used to have linear reactions: hAMPD1 (4 nM), hAMPD2 (38 nM), hAMPD3 (1 nM), rAMPD1 (116 nM), rAMPD2 (53 nM), rAMPD3 (31 nM), and mAMPD1 (816 nM).

[2] = target: T2, AMP deaminase 1 (Rattus norvegicus, UniProt P10759)
T2 sequence (P10759 whole entry): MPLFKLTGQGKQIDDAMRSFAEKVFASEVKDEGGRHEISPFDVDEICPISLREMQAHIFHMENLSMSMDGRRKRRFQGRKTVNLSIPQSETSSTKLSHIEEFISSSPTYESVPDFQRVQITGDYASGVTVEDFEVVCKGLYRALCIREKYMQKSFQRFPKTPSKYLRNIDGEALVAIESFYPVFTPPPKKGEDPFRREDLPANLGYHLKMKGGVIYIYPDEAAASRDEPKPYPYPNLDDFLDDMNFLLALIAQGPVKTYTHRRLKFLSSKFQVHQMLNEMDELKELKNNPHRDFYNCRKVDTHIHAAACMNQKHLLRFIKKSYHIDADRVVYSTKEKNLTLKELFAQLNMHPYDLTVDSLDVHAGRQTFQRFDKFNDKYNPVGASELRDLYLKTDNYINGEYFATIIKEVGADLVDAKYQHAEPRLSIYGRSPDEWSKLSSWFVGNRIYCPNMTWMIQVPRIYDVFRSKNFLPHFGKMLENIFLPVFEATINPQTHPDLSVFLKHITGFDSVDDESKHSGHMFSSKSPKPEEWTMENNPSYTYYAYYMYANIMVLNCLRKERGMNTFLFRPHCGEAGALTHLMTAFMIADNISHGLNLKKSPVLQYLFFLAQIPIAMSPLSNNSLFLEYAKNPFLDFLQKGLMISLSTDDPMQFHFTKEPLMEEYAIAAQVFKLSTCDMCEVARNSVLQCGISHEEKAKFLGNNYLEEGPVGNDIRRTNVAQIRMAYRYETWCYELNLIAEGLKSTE
Method: as §1

[3] = target: T3, AMP deaminase 2 (Rattus norvegicus, UniProt Q02356)
T3 sequence (Q02356 whole entry): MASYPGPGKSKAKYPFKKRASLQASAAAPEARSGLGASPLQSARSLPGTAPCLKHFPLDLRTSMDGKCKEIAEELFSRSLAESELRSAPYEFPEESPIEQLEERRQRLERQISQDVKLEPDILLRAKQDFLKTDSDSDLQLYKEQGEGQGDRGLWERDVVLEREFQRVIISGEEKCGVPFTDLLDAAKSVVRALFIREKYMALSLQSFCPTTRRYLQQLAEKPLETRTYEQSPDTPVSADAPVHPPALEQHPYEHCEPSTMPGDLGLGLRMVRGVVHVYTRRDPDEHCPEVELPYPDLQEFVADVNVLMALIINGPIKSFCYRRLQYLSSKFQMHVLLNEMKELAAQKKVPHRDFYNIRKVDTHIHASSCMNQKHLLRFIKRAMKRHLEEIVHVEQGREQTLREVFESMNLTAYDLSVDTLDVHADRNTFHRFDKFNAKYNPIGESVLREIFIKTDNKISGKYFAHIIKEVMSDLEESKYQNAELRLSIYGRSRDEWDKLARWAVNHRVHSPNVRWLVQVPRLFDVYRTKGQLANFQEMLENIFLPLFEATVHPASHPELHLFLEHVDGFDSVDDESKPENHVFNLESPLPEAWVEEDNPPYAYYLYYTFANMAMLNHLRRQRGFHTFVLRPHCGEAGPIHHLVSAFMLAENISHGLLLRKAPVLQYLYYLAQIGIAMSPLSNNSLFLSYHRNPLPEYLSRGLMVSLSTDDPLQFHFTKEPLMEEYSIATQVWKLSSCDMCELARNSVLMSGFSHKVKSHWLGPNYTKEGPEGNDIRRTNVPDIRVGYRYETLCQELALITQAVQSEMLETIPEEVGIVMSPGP
Method: as §1

[4] = target: T4, AMP deaminase 1 (Homo sapiens, UniProt P23109)
T4 sequence (P23109 whole entry): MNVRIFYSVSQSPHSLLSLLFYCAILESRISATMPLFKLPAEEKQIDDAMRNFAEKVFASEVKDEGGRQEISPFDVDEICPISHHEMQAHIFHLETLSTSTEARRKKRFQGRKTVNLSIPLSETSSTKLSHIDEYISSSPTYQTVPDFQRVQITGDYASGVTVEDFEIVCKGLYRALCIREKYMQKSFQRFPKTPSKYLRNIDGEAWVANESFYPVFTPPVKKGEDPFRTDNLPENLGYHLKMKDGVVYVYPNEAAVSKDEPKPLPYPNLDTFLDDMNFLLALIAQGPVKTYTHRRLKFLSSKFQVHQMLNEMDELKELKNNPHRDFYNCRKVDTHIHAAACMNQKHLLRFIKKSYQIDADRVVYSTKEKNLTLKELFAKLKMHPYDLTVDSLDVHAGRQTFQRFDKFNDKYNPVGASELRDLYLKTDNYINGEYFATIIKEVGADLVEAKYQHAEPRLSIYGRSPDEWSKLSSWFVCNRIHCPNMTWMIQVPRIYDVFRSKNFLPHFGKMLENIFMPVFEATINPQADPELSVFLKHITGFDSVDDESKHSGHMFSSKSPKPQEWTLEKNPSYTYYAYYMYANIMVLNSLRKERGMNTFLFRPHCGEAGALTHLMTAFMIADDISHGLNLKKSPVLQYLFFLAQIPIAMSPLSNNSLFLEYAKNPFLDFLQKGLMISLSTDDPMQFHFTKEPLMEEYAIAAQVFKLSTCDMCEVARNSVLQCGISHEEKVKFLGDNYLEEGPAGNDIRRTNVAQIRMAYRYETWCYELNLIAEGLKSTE
Method: as §1

Row | Compound | pIC50 [1] | pIC50 [2] | pIC50 [3] | pIC50 [4]
1 | COc1cc(-c2ccc(CN[C@H](C)c3cccc4ccncc34)cc2)ccc1C(=O)O [4-[4-({[(1R)-1-(isoquinolin-8-yl)ethyl]amino}methyl)phenyl]-2-methoxybenzoic acid (Compound 4)] | 7.70 | 7.70 | 6.52 | 7.62
2 | C[C@@H](NCc1ccc(-c2ccc(C(=O)O)cn2)cc1)c1cccc2ccccc12 [6-[4-({[(1R)-1-(naphthalen-1-yl)ethyl]amino}methyl)phenyl]pyridine-3-carboxylic acid (Compound 1)] | – | – | – | 6.21
